According to US20090130165A1, “MIF Inhibitors” (Cortical Pty Ltd, priority 2005, published 2009):
Converted amounts (≈) assume the structure as drawn.

Assays:
[1] = system: LPS-induced IL-6 production in RAW264.7 mouse macrophage cell line; test: Inhibition of LPS-induced production of IL-6 in RAW264.7 macrophages; format: cell-based; details: 50 uM compound, 100 ng/ml LPS 4 hr, RAW264.7 cells, relative to LPS+DMSO control
Method: MIF is an important factor in the innate immune response to toxins such as the bacterial endotoxin lipopolysaccharide (LPS). […] A compound with the ability to inhibit the biological activity of MIF would therefore inhibit the activation of cytokine production by macrophages in response to LPS. The RAW264.7 mouse macrophage cell line was propagated in DMEM/10% foetal calf serum (FCS) at 37° C. in 5% CO2. 24 hr prior to assay cells were seeded in 96-well tissue culture plates. Cells were allowed to adhere for 4 hr prior to transfer to DMEM/0.5% FCS for 18 hr. Cells were then treated with 50 uM compound in DMSO for 30 min prior to stimulation for 4 hr with 100 ng/ml LPS. Cell culture supernatants were then collected from each well and assayed for IL-6 levels by ELISA (R&D Systems) according to the manufacturer's instructions.

[2] = molecular target: T1, Recombinant human MIF protein (Homo sapiens, UniProt P14174); test: Inhibition of MIF tautisomerase activity (L-dopachrome); format: biochemical; details: mean±standard deviation of 2-4 experiments; for inhibition at 50 µM: 50 uM compound; for inhibition at 100 µM: 100 uM compound
T1 sequence (P14174 2-115 limits assumed): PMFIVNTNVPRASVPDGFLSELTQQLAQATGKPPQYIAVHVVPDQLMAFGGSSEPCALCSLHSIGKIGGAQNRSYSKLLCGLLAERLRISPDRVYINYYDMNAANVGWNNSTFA
Method: MIF protein has the ability in vitro to catalyze the tautisomerization of dopachrome^(15).
Recombinant human MIF protein was pre-incubated with compounds as indicated prior to the addition of L-dopachrome substrate. Tautomerase activity was determined by measurement of die decrease in absorbance at 475 nm after 2 min. […]

[3] = Lower limits of aqueous solubility by nephelometry; format: physicochemical; details: phosphate-buffered saline with 0.005% (v/v) P20 and 5% DMSO, aqueous with cosolvent or surfactant or cyclodextrin, kinetic from dmso stock, 0.005% (v/v) P20, 5% DMSO, read-out: Solubility Lower Limit Range
Method: Lower limits of aqueous compound solubility were determined in a nepholometer in phosphate-buffered saline containing 0.005% (v/v) P20 and a final concentration of 5% DMSO. Briefly, compounds were initially dissolved in DMSO as a 10 mM stock solution and diluted to 1 mM and 0.5 mM working solutions with neat DMSO. The compounds were then titrated in DMSO and a constant volume of DMSO stock added to filtered PBS/P20 solution so that the final DMSO concentration was 5%. The solubility was then determined in clear, flat-bottom 96-well plates using the nephelometer and reported as the concentration range at which the compound begins to precipitate from solution.

C57Bl/6j mice = test: In vivo assay of MIF antagonism: murine endotoxic shock model, serum TNF; set-up: species or system mouse; details: intra-peritoneal, 10, 1 and 0.1 mg/kg at 24 hours and 1 hour before LPS 1 mg/kg (FIG. 3)
Method: The activities of compounds were studied in the murine endotoxic shock model. This model has been previously shown to be dependent on MIF^(14). Administration of a compound which inhibits the cytokine activity of MIF would be expected to result hi a reduction in serum level s of the pro-inflammatory cytokine TNF.
Endotoxaemia was induced by intra-peritoneal Injection of C57Bl/6j mice with lipopolysaccharide (LPS) (1 mg/kg) in 200 μl saline. Animals were treated with either a saline solution (control) only, or LPS with vehicle or compounds B1 and A3 in vehicle at doses of 10, 1 and 0.1 mg/kg body weight, administered by intra-peritoncal injection at 24 hours and 1 hour before intra-peritoneal LPS injection. After 1 hour mice were humanely killed by CO2 inhalation then neck dislocation. Serum was obtained from blood obtained by cardiac puncture prior to death and measured for TNF levels by ELISA according to the manufacturer's instructions.

Row | SMILES | melting point | inhibition at 50 µM [2] [%] | inhibition at 100 µM [2] [%] | inhibition at 50 µM [1] [%] | also measured
1 | CCCCSCC(=O)c1cc2c(cc1Cl)NC(=O)C2 [Compound 20, 5-((Butylthio)acetyl)-6-chloro-1,3-dihydro-2H-indol-2-one] |  |  |  | 59 ± 11 | 
2 | O=C(CSCCO)c1ccc2[nH]c(=O)[nH]c2c1 [Compound 7, 5-(((2-hydroxyethyl)thio)acetyl)-1,3-dihydro-2H-benzimidazol-2-one] | 320 °C (dec.) |  |  |  | 
3 | CCCCSCC(=O)c1ccc2[nH]c(=O)[nH]c2c1 [Compound 22, 5-((butylthio)acetyl)-1,3-dihydro-2H-benzimidazol-2-one] | 211 to 213 °C | 4 ± 6 | 4 ± 7 |  | 
4 | CCCCSCC(=O)c1ccc2[nH]c(=O)oc2c1 [Compound 16, 6-((Butylthio)acetyl)-1,3-benzoxazol-2(3H)-one] |  |  |  | 12 ± 63 | 
5 | O=C(O)CSCC(=O)c1ccc2[nH]c(=O)oc2c1 [Compound 17, ((2-Oxo-2-(2-oxo-2,3-dihydro-1,3-benzoxazol-6-yl)ethyl)thio)acetic acid] |  |  |  | 8 ± 90 | 
6 | COC(=O)CCSCC(=O)c1ccc2c(c1)CC(=O)N2 [Compound 1, methyl 3-((2-oxo-2-(2-oxo-2,3-dihydro-1H-indol-5-yl)ethyl)thio)propanoate] | 106 to 108 °C |  |  | 13 ± 23 | solubility [3]: 18 to 63 µg/mL (≈ 61.4 to 215 µM)
7 | COC(=O)CCSCC(=O)c1cc2c(cc1Cl)NC(=O)C2 [Compound 12, methyl 3-((2-(6-chloro-2-oxo-2,3-dihydro-1H-indol-5-yl)-2-oxoethyl)thio)propanoate] | 75 to 77 °C |  |  | 60 | 
8 | CCCCSCC(=O)c1ccc2c(c1)CC(=O)N2 [Compound 21, 5-((Butylthio)acetyl)-1,3-dihydro-2H-indol-2-one] |  |  |  | 41 ± 54 | 
9 | O=C(CSCCCCCCO)c1ccc2[nH]c(=O)[nH]c2c1 [Compound 10, 5-(((6-hydroxyhexyl)thio)acetyl)-1,3-dihydro-2H-benzimidazol-2-one] | 180 to 181 °C |  |  | 25 | 
10 | O=C1Cc2cc(C(=O)CSCCCCCCO)ccc2N1 [Compound 9, 5-(((6-hydroxyhexyl)thio)acetyl)-1,3-dihydro-2H-indol-2-one] | 105 to 108 °C |  |  |  | 
11 | O=C1Cc2cc(C(=O)CSCCCCCCO)c(Cl)cc2N1 [Compound 11, 6-chloro-5-(((6-hydroxyhexyl)thio)acetyl)-1,3-dihydro-2H-indol-2-one] |  |  |  | 48 ± 24 | 
12 | CC(=O)OCCCCCCSCC(=O)c1ccc2c(c1)CC(=O)N2 [Compound 8, 6-((2-oxo-2-(2-oxo-2,3-dihydro-1H-indol-5-yl)ethyl)thio)hexyl acetate] | 86 to 87 °C |  |  | 42 ± 11 | 
13 | O=C(O)CCSCC(=O)c1ccc2[nH]c(=O)oc2c1 [Compound 14, 3-((2-Oxo-2-(2-oxo-2,3-dihydro-1,3-benzoxazol-6-yl)ethyl)thio)propanoic acid] |  |  |  |  | solubility [3]: > 140 µg/mL
14 | O=C(O)CSCC(=O)c1ccc2[nH]c(=O)[nH]c2c1 [Compound 6, ((2-oxo-2-(2-oxo-2,3-dihydro-1H-benzimidazol-5-yl)ethyl)thio)acetic acid] | 230 °C (dec.) |  |  |  | solubility [3]: 67 to 250 µg/mL (≈ 252 to 939 µM)
15 | O=C(CSCCCCCCO)c1ccc2[nH]c(=O)oc2c1 [Compound 15, 6-(((6-Hydroxyhexyl)thio)acetyl)-1,3-benzoxazol-2(3H)-one] |  |  |  | 42 ± 40 | solubility [3]: 77 to 250 µg/mL (≈ 249 to 808 µM); suppression of LPS-induced serum TNF levels, in words (C57Bl/6j mice): significant dose-dependent suppression
16 | COC(=O)CSCC(=O)c1ccc2[nH]c(=O)[nH]c2c1 [Compound 5, methyl ((2-oxo-2-(2-oxo-2,3-dihydro-1H-benzimidazol-5-yl)ethyl)thio)acetate] | 177 to 178.5 °C |  |  |  | 
17 | O=C(O)CCSCC(=O)c1ccc2[nH]c(=O)sc2c1 [Compound 18, 3-((2-Oxo-2-(2-oxo-23-dihydro-1,3-benzothiazol-6-yl)ethyl)thio)propanoic acid] |  |  |  | 49 ± 34 | 

The next lines start with results.

Row | melting point | inhibition at 50 µM [2] [%] | inhibition at 100 µM [2] [%] | SMILES | inhibition at 50 µM [1] [%] | also measured
18 | 102.5 to 115 °C | 24 ± 1 | 42 ± 9 | CCCCSCC(=O)c1cc2sc(=O)[nH]c2cc1Cl [Compound 29, 6-((butylthio)acetyl)-5-chloro-1,3-benzothiazol-2(3H)-one] |  | 
19 | 195 to 197 °C | 12 ± 11 | 27 ± 16 | O=C(O)CCSCC(=O)c1cc2sc(=O)[nH]c2cc1Cl [Compound 30, 3-((2-(5-chloro-2-oxo-2,3-dihydro-1,3-benzothiazol-6-yl)-2-oxoethyl)thio)propanoic acid] |  | 
20 | 80 to 81 °C | 15 ± 6 | 34 ± 12 | CCCCSCC(=O)c1ccc2c(c1)n(C)c(=O)n2C [Compound 24, 5-((butylthio)acetyl)-1,3-dimethyl-1,3-dihydro-2H-benzimidazol-2-one] |  | 
21 | 174 to 176 °C | 0 | 3 ± 2 | Cn1c(=O)n(C)c2cc(C(=O)CSCCC(=O)O)ccc21 [Compound 23, 3-((2-(1,3-dimethyl-2-oxo-2,3-dihydro-1H-benzimidazol-5-yl)-2-oxoethyl)thio) propanoic acid] |  | 
22 | 120 to 121 °C | 4 ± 1 | 11 ± 4 | Cn1c(=O)sc2cc(C(=O)CSCCC(=O)O)c(Cl)cc21 [Compound 32, 3-((2-(5-chloro-3-methyl-2-oxo-2,3-dihydro-1,3-benzothiazol-6-yl)-2-oxoethyl)thio)propanoic acid] |  | 
23 | 148 to 150 °C | 12 ± 6 | 27 ± 6 | Cn1c(=O)n(C)c2cc(C(=O)CSCCC(=O)O)c(Cl)cc21 [Compound 28, 3-((2-(6-chloro-1,3-dimethyl-2-oxo-2,3-dihydro-1H-benzimidazol-5-yl)-2-oxoethyl)thio)propanoic acid] |  | 
24 |  | 28 ± 17 | 44 ± 12 | CCCCSCC(=O)c1cc2c(cc1Cl)n(C)c(=O)n2C [Compound 27, 5-((butylthio)acetyl)-6-chloro-1,3-dimethyl-1,3-dihydro-2H-benzimidazol-2-one] |  | 
25 |  | 2 ± 3 | 8 ± 8 | CCCCSCC(=O)c1cc2sc(=O)n(C)c2cc1Cl [Compound 31, 6-((butylthio)acetyl)-5-chloro-3-methyl-1,3-benzothiazol-2(3H)-one] |  | 
26 | 199 to 201 °C | 4 ± 3 | 12 ± 4 | CCCCSCC(=O)c1cc2[nH]c(=O)[nH]c2cc1Cl [Compound 25, 5-((butylthio)acetyl)-6-chloro-1,3-dihydro-2H-benzimidazol-2-one] |  | 
27 |  | 2 ± 3 | 4 ± 6 | O=C(O)CCSCC(=O)c1cc2[nH]c(=O)[nH]c2cc1Cl [Compound 26, 3-((2-(6-chloro-2-oxo-2,3-dihydro-1H-benzimidazol-5-yl)-2-oxoethyl)thio)propanoic acid] |  | 
